Laboratory results reported in the supplement of paper PMC10307832.

How the values were obtained:
Test in all cases: relative viability (nuclei count vs DMSO), 5 days (fraction); higher = more cells survive
[1] = compound: Nc1nc(Nc2ccc3c(c2)CC[C@@H](N2CCCC2)CC3)nn1-c1cc2c(nn1)-c1ccccc1CCC2 [Bemcentinib] + CC1(C)CCC(c2ccc(Cl)cc2)=C(CN2CCN(c3ccc(C(=O)NS(=O)(=O)c4ccc(N[C@H](CCN5CCOCC5)CSc5ccccc5)c(S(=O)(=O)C(F)(F)F)c4)cc3)CC2)C1 [Navitoclax] (partner 0.5 µM)
In short: (§1)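 Each reported value is a median over duplicate plates. It expresses relative viability: treated-well nuclei count divided by vehicle-well nuclei count. Lung cancer cell lines in 1536-well plates were dosed by pin tool a day after seeding, alone with one drug or with a fixed anchor-drug dose plus five library-drug doses (not always all listed) in √10 steps, and nuclei were counted after 5 days.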

[2] = compound: CC1=CC=C(C=C1)C(=O)CN2C3=C(CCCC3)SC2=N [Pifithrin_alpha] + Cc1nc(NC(=O)N2CCC[C@H]2C(N)=O)sc1-c1ccnc(C(C)(C)C(F)(F)F)c1 [Alpelisib] (partner 2 µM)
In short: as §1

[3] = compound: CNC(=O)c1ccccc1Sc1ccc2c(/C=C/c3ccccn3)n[nH]c2c1 [Axitinib] + Cc1cc(Nc2cc(N3CCN(C)CC3)nc(Sc3ccc(NC(=O)C4CC4)cc3)n2)n[nH]1 [Tozasertib] (partner 0.1 µM)
In short: as §1

[4] = compound: Nc1nc(Nc2ccc3c(c2)CC[C@@H](N2CCCC2)CC3)nn1-c1cc2c(nn1)-c1ccccc1CCC2 [Bemcentinib] + NC(=O)Nc1cc(-c2cccc(F)c2)sc1C(=O)N[C@H]1CCCNC1 [AZD7762] (partner 0.2 µM)
In short: as §1

| Cell Line | relative viability ([1]; first compound 0.04 µM) | relative viability ([1]; first compound 0.1265 µM) | relative viability ([1]; first compound 0.4 µM) | relative viability ([1]; first compound 1.265 µM) | relative viability ([1]; first compound 4 µM) | relative viability ([2]; first compound 1 µM) | relative viability ([2]; first compound 3.162 µM) | relative viability ([2]; first compound 10 µM) | relative viability ([2]; first compound 100 µM) | relative viability ([3]; first compound 0.005 µM) | relative viability ([3]; first compound 0.01581 µM) | relative viability ([3]; first compound 0.05 µM) | relative viability ([3]; first compound 0.1581 µM) | relative viability ([3]; first compound 0.5 µM) | relative viability ([2]; first compound 31.62 µM) | relative viability ([4]; first compound 0.04 µM) | relative viability ([4]; first compound 0.1265 µM) | relative viability ([4]; first compound 0.4 µM) | relative viability ([4]; first compound 1.265 µM) | relative viability ([4]; first compound 4 µM) |
| --- | --- | --- | --- | --- | --- | --- | --- | --- | --- | --- | --- | --- | --- | --- | --- | --- | --- | --- | --- | --- |
| COR-L23 | 1.14 | 1.11 | 1.1 | 1.03 | 1.03 | 0.857 | 0.849 | 0.931 | 0.663 | 0.212 | 0.205 | 0.24 | 0.244 | 0.278 | – | – | – | – | – | – |
| NCI-H2023 | 0.963 | 1.12 | 1.11 | 1.12 | 0.996 | 0.589 | 0.396 | 0.454 | 0.367 | 0.368 | 0.395 | 0.38 | 0.483 | 0.604 | 0.289 | – | – | – | – | – |
| NCI-H1650 | 1.1 | 1.29 | 0.946 | 1.33 | 1.16 | – | – | – | – | 0.448 | 0.382 | 0.49 | 0.411 | 0.482 | – | – | – | – | – | – |
| NCI-H1648 | – | – | – | – | – | – | – | – | – | 0.506 | 0.643 | – | 0.483 | 0.602 | – | 0.579 | 0.613 | 0.709 | 0.572 | 0.638 |
| NCI-H1563 | – | – | – | – | – | 0.967 | 0.919 | 0.936 | 0.82 | – | – | – | – | – | 0.922 | – | – | – | – | – |
| SW 900 | – | – | – | – | – | – | – | – | – | 0.84 | 0.572 | 0.571 | 0.639 | 0.642 | – | 0.559 | 0.65 | 0.689 | 0.552 | 0.538 |
| A549 | 1.2 | 1.27 | 1.32 | 1.29 | 1.2 | 0.895 | 0.777 | 0.644 | 0.799 | – | – | – | – | – | 0.698 | – | – | – | – | – |
| NCI-H1623 | – | – | – | – | – | – | – | – | – | 0.457 | 0.506 | 0.432 | 0.498 | 0.45 | – | – | – | – | – | – |
| NCI-H2342 | – | – | – | – | – | – | – | – | – | 0.618 | 0.685 | 0.448 | 0.593 | 0.528 | – | 0.415 | 0.516 | 0.472 | 0.52 | 0.493 |
| NCI-H1299 | 1.02 | 1.04 | 1.05 | 1.04 | 1 | 1.1 | 1.09 | 1.07 | 1.18 | – | – | – | – | – | 0.874 | – | – | – | – | – |
| SK-LU-1 | 0.867 | 0.986 | 0.894 | 0.807 | 0.615 | 0.828 | 1.19 | 1.13 | 1.16 | 0.41 | 0.345 | 0.333 | 0.375 | 0.47 | 0.766 | – | – | – | – | – |
| NCI-H522 | – | – | – | – | – | – | – | – | – | 0.662 | 0.573 | 0.46 | 0.575 | 0.577 | – | 0.872 | 0.766 | 0.771 | 0.949 | 0.849 |
| EBC-1 | 0.377 | 0.404 | 0.431 | 0.394 | 0.422 | 0.821 | 0.834 | 0.683 | 0.602 | – | – | – | – | – | 0.558 | – | – | – | – | – |
| Calu-6 | 0.856 | 0.856 | 1.01 | 0.871 | 0.973 | 0.884 | 0.918 | 0.961 | 0.857 | – | – | – | – | – | 0.622 | – | – | – | – | – |
